Here are results for four compounds from patent US8530177B2, “Chloral hydrate detection” (Randox Laboratories Limited, priority 2010, dated 2013).

For data set [1] the following is noted: twenty four hours following a single oral dose; cited from earlier work.
The conditions of data set [2]: average person, drinking water guidance; cited from earlier work.
Data set [3] concerns antibody of the invention (polyclonal IgG raised against Immunogen II, TCG-BTG). Description: Competitive ELISA for TCG: cross-reactivity and specificity of the antibody. In kind it is binding, sheep. Conditions: for IC50 = standard concentration which produces 50% B/B0: hapten A-HRP conjugate. The method, then:
TCG was coupled to bovine thyroglobulin (Immunogen II, Example 5). The resulting immunogen was administered to adult sheep on a monthly basis to provide target-specific polyclonal antisera. IgG was extracted from the antisera via caprylic acid/ammonium sulphate precipitation of immunoglobulin. Microtitre plates (Thermo Scientific, 468667) were coated with antibody (125 μl) in coating buffer (10 mM Tris pH 8.5) at 37° C. for 2 hours. Antibody was coated at 1.25 μg/ml. The plates were then washed. 50 μl of sample/standard (trichloroethyl glucuronide, Randox LK811; chloral hydrate, Sigma C8383-100 g; trichloroacetic acid, Fisher Scientific T/3000/50; ETG, Randox LK589) was added to the appropriate wells in triplicate, followed by 75 μl of hapten A-HRP conjugate at ¼K and incubated at 25° C. for 1 hour. The plates were then washed and 125 μl of TMB (Randox, 4380-15) was added to each well and left at room temperature for 20 mins in the dark. The reaction was stopped using 125 μl of 0.2M sulphuric acid. The absorbances were read at 450 nm with an ELISA microplate reader (BIO-TEK Instruments, Elx800) and the means calculated. Antibody specificity and sensitivity were then determined.
Competitive ELISA results in the Table 1 below highlight the specificity of the antibody of the invention towards TCG.
A general note: In an ELISA, binding on a coated surface is turned into a signal by an enzyme label.

For data set [4] the following is noted: metabolite of chloral hydrate; cited from earlier work.

In brackets after ≈: the same amount, converted by molar mass.

With `OC(O)C(Cl)(Cl)Cl` [Chloral Hydrate, 2,2,2-trichloroethanediol], in data set [1], the “excreted in the urine as TCG” value is reported as about 28% and the “excreted in the urine as trichloroethanol” value is given as “approximately 0.7%”. For the same compound, the “Tolerable Daily Intake (TDI)” value in data set [2] is 0.3 mg/day.

As to `CCO[C@@H]1O[C@H](C(=O)O)[C@@H](O)[C@H](O)[C@H]1O` [EtG, ethyl glucuronide], the “% CR = percentage cross-reactivity based on 100% specificity to TCG” value (“% CR = percentage cross-reactivity based” for short) in data set [3] (competitive ELISA) is on record as <<0.69%. The “cross-reactivity with the antibody of the invention (in words)” value in data set [3] (competitive ELISA, Table 1) was “does not cross-react”. Moreover, the “IC50 = standard concentration which produces 50% B/B0” value in data set [3] (competitive ELISA) is >>2000 ng/ml. The “% B/B0” value amounted to 86.7% in data set [3] (standard 31.25 ng/ml); 83.9% in data set [3] (standard 62.5 ng/ml); 84.8% in data set [3] (standard 125 ng/ml); 82.8% in data set [3] (standard 250 ng/ml); 80.2% in data set [3] (standard 500 ng/ml); 75.6% in data set [3] (standard 1000 ng/ml). For the same compound, the “% B/B0” value in data set [3] (standard 2000 ng/ml) worked out at 69.6%. Further, the “A450 (absorbance at 450 nm)” value in data set [3] (standard 31.25 ng/ml) is 1.183; in data set [3] (standard 62.5 ng/ml) it was 1.144; in data set [3] (standard 125 ng/ml), 1.157; in data set [3] (standard 250 ng/ml) it was 1.130; in data set [3] (standard 500 ng/ml), 1.094; in data set [3] (standard 1000 ng/ml), 1.031. Also, in data set [3] (standard 2000 ng/ml), the “A450 (absorbance at 450 nm)” value stood at 0.950.

`O=C(O)[C@H]1O[C@@H](OCC(Cl)(Cl)Cl)[C@H](O)[C@@H](O)[C@@H]1O` [TCG, trichloroethanol glucuronide]: the “% CR = percentage cross-reactivity based” value in data set [3] (competitive ELISA) came to 100%. Also, the “IC50 = standard concentration which produces 50% B/B0” value in data set [3] (competitive ELISA) amounted to 13.724 ng/mL (≈ 0.0422 µM). For the same compound, the “% B/B0” value in data set [3] (standard 1.25 ng/ml) was 86.6%; in data set [3] (standard 2.5 ng/ml), 81.0%; in data set [3] (standard 5 ng/ml), 70.0%; in data set [3] (standard 10 ng/ml), 57.5%; in data set [3] (standard 20 ng/ml) it was 42.3%; in data set [3] (standard 40 ng/ml) it was 30.7%. Besides, in data set [3] (standard 80 ng/ml), the “% B/B0” value stood at 24.6%. Also, the “A450 (absorbance at 450 nm)” value in data set [3] (standard 1.25 ng/ml) came to 1.313; in data set [3] (standard 2.5 ng/ml), 1.228; in data set [3] (standard 5 ng/ml), 1.061; in data set [3] (standard 10 ng/ml), 0.872; in data set [3] (standard 20 ng/ml), 0.641; in data set [3] (standard 40 ng/ml), 0.465. Also, the “A450 (absorbance at 450 nm)” value in data set [3] (standard 80 ng/ml) was found to be 0.373.

For `O=C(O)C(Cl)(Cl)Cl` [Trichloroacetic Acid, trichloroacetic acid], in data set [3] (competitive ELISA), the “% CR = percentage cross-reactivity based” value was <<0.69%. For the same compound, the “IC50 = standard concentration which produces 50% B/B0” value in data set [3] (competitive ELISA) is on record as >>2000 ng/ml. The “% B/B0” value stood at 91.2% in data set [3] (standard 31.25 ng/ml); 92.5% in data set [3] (standard 62.5 ng/ml); 92.4% in data set [3] (standard 125 ng/ml); 87.2% in data set [3] (standard 250 ng/ml); 85.4% in data set [3] (standard 500 ng/ml); 81.8% in data set [3] (standard 1000 ng/ml). Besides, in data set [3] (standard 2000 ng/ml), the “% B/B0” value came to 72.7%. Further, the “A450 (absorbance at 450 nm)” value is 1.372 in data set [3] (standard 31.25 ng/ml); 1.391 in data set [3] (standard 62.5 ng/ml); 1.389 in data set [3] (standard 125 ng/ml); 1.312 in data set [3] (standard 250 ng/ml); 1.284 in data set [3] (standard 500 ng/ml); 1.230 in data set [3] (standard 1000 ng/ml). The “A450 (absorbance at 450 nm)” value in data set [3] (standard 2000 ng/ml) was 1.094. The half-life result in data set [4] is reported as “approximately 4 days”.
